The values that follow come from ChEMBL document CHEMBL1908105, “UDP-glucuronosyltransferases and clinical drug-drug interactions” (Pharmacol Ther, 2005).

The term pKi denotes the Ki on a negative log10 scale, so that one unit is a factor of ten. Usually Km stands for the concentration of substrate that gives half-maximal velocity. In general, inhibition refers to how much of the control response was suppressed.

Data set [1] in a line: Inhibition of AZT glucuronidation by human UGT enzymes from liver microsomes. Set-up: species or system Microsome.
Data set [2] is described as follows: Inhibition of 4-methylumbelliferone glucuronidation by human UGT enzymes from liver microsomes. Also on record: species or system Microsome. (Microsomes from liver hold many membrane-bound enzymes, among them those of drug oxidation.)
Data set [3] can be described thus: Inhibition of morphine glucuronidation by human fetal-liver microsomes. Set-up: species or system Microsome.
A short description of data set [4]: Inhibition of ciramadol glucuronidation by human UGT enzymes from liver microsomes. Also on record: species or system Microsome.
In data set [5] the target is T1, UDP-glucuronosyltransferase 1A9 (Homo sapiens, UniProt O60656).
T1 sequence (O60656 whole entry): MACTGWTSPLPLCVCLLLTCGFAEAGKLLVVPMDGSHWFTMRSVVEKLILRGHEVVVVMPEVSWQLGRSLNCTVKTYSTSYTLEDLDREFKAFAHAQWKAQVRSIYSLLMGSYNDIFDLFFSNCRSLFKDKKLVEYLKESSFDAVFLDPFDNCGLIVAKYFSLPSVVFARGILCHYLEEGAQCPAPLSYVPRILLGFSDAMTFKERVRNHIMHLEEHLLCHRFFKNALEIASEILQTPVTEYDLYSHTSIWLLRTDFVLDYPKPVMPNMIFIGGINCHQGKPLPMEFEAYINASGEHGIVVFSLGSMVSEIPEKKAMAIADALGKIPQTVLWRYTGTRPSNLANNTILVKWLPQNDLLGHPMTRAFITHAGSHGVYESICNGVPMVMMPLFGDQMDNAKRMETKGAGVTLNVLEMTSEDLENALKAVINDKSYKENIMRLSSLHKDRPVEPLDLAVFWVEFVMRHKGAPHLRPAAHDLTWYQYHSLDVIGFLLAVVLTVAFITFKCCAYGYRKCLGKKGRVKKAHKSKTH
The experiment in a line: Inhibition of 4-methylumbelliferone glucuronidation by human recombinant UGT1A9.

Data set [6] has as its target T1, UDP-glucuronosyltransferase 1A9. The data set is described as follows: (§1) Drug glucuronidation reaction catalyzed by human recombinant UGT1A9.
Data set [7] has as its target T2, UGT1A9 (Homo sapiens, UniProt O60656). Described as §1. The settings on record: recombinant UGT1A9.
A short description of data set [8]: Inhibition of codeine glucuronidation by human UGT enzymes from liver homogenate. The data set is classed as tissue-based.
Data set [9] deals with T3, UDP-glucuronosyltransferase 1A1 (Homo sapiens, UniProt P22309).
T3 sequence (P22309 whole entry): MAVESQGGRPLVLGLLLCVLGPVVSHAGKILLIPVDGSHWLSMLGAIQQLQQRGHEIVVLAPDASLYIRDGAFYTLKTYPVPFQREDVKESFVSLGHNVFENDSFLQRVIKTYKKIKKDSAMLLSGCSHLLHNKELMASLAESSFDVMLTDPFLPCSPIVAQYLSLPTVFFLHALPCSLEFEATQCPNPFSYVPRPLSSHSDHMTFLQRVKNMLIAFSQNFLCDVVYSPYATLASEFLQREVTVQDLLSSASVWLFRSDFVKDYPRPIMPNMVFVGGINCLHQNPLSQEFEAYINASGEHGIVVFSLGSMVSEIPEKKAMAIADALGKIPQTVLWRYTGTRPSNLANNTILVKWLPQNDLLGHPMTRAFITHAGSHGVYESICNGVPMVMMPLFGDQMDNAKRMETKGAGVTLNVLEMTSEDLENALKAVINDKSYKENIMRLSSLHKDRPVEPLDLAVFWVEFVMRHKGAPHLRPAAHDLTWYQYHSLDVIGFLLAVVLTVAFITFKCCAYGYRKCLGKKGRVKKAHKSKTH
The data set is described as follows: Inhibition of 4-methylumbelliferone glucuronidation by human recombinant UGT1A1.

For data set [10], the target named is T4, UGT2B7 (Homo sapiens, UniProt P16662).
T4 sequence (P16662 whole entry): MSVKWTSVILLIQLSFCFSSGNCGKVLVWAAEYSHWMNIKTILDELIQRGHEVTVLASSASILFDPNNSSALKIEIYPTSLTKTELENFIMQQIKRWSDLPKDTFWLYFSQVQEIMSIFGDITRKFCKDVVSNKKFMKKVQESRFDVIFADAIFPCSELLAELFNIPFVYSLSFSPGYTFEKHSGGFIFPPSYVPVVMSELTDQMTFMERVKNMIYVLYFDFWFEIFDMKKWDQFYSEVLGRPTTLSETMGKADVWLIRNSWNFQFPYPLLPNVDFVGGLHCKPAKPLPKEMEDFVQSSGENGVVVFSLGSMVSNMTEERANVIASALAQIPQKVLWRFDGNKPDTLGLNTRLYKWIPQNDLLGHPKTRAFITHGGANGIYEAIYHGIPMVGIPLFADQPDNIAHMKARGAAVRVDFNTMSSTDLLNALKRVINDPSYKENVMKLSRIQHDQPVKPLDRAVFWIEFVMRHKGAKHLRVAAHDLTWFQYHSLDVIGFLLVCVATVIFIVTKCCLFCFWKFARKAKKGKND
The experiment in a line: (§2) Drug glucuronidation reaction catalyzed by human recombinant UGT2B7. The settings on record: recombinant UGT2B7.

The target in data set [11] is T5, UDP-glucuronosyltransferase 2B7 (Homo sapiens, UniProt P16662).
T5 sequence (P16662 whole entry): T4 sequence (P16662 whole entry)
Described as §2.

The target in data set [12] is UDP-glucuronosyltransferase 1A10 (Homo sapiens, UniProt Q9HAW8). The experiment in a line: Inhibition of 4-methylumbelliferone glucuronidation by human recombinant UGT1A10.
Sequence of UDP-glucuronosyltransferase 1A10 (Q9HAW8 whole entry): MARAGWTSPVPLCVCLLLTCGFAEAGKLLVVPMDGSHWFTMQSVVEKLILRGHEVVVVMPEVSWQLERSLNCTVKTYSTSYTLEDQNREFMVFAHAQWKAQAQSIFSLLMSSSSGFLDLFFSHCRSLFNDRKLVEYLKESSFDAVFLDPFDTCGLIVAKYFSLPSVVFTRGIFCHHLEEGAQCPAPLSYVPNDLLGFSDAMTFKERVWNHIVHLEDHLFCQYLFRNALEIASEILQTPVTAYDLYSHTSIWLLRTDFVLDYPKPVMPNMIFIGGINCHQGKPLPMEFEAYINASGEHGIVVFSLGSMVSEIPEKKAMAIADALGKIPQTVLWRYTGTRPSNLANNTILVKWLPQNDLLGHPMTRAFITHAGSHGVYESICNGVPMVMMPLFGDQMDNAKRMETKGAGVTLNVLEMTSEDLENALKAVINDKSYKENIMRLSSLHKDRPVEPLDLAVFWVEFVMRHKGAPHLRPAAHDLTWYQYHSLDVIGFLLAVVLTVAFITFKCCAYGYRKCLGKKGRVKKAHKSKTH
Data set [13] addresses T6, UDP-glucuronosyltransferase 1A3 (Homo sapiens, UniProt P35503).
T6 sequence (P35503 whole entry): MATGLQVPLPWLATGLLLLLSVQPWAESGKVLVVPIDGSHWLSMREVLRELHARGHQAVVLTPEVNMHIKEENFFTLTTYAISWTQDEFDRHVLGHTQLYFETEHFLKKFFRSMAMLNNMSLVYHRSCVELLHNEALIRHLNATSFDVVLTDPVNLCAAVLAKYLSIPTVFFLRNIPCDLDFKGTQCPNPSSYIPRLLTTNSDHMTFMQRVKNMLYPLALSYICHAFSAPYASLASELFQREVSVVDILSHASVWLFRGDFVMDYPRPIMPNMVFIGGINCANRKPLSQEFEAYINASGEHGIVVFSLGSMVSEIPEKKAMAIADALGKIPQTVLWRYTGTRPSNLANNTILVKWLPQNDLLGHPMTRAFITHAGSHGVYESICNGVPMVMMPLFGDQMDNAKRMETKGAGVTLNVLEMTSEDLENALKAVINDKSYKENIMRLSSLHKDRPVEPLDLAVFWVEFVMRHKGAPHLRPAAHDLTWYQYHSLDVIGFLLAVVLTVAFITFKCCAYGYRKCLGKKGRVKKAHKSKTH
The experiment in a line: (§3) Drug glucuronidation reaction catalyzed by human recombinant UGT1A3.

In data set [14] the target is UGT1A3 (Homo sapiens, UniProt P35503). Described as §3. The settings on record: recombinant UGT1A3.
For data set [15], the target named is UDP-glucuronosyltransferase 1A7 (Homo sapiens, UniProt Q9HAW7). The data set is described as follows: Inhibition of 4-methylumbelliferone glucuronidation by human recombinant UGT1A7.
Sequence of UDP-glucuronosyltransferase 1A7 (Q9HAW7 whole entry): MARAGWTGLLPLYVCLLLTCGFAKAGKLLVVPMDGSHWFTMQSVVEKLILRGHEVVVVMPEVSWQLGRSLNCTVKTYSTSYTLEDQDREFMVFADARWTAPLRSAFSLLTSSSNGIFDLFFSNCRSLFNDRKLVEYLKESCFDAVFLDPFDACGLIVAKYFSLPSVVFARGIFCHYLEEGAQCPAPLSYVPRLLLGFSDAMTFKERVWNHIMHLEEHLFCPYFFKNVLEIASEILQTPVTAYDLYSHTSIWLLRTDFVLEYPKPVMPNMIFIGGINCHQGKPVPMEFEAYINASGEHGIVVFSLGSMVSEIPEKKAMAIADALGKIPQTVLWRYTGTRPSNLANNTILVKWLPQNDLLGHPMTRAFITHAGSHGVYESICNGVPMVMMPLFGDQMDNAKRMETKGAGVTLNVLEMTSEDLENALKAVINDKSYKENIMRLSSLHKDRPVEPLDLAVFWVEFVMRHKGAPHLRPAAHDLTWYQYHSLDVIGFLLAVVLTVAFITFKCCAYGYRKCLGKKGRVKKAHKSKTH
Data set [16] addresses T2, UGT1A9. The data set is described as follows: Inhibition of propofol (assayed at the Km) glucuronidation by human recombinant UGT1A9 (+/- 15% inhibition at 5mM VPA). Particulars: recombinant UGT1A9, probe propofol.
The target of data set [17] is UGT2B15 (Homo sapiens, UniProt P54855). The experiment in a line: Inhibition of dihydrotestosterone (assayed at the Km) glucuronidation by human recombinant UGT2B15 (+/- 11% inhibition at 5mM VPA). The settings on record: recombinant UGT2B15, probe dihydrotestosterone.
Sequence of UGT2B15 (P54855 whole entry): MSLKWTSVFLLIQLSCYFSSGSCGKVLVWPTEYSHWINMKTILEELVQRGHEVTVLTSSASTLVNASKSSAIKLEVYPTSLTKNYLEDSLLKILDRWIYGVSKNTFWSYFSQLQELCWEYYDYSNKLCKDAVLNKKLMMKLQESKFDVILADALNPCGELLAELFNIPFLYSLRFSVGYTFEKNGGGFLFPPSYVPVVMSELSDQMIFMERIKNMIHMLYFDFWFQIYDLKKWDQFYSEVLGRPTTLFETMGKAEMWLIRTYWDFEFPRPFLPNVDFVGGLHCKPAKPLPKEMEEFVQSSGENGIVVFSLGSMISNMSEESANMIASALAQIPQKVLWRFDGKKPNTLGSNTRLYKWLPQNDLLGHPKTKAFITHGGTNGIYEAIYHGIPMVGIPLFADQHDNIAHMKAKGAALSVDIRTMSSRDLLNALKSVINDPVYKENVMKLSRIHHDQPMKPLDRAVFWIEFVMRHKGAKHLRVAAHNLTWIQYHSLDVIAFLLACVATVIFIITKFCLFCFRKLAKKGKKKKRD
For data set [18], the target named is T5, UDP-glucuronosyltransferase 2B7. The data set is described as follows: Inhibition of AZT glucuronidation by human recombinant UGT2B7.
Data set [19] deals with UDP-glucuronosyltransferase 1A6 (Homo sapiens, UniProt P19224). The data set is described as follows: Inhibition of 4-methylumbelliferone glucuronidation by human recombinant UGT1A6.
Sequence of UDP-glucuronosyltransferase 1A6 (P19224 whole entry): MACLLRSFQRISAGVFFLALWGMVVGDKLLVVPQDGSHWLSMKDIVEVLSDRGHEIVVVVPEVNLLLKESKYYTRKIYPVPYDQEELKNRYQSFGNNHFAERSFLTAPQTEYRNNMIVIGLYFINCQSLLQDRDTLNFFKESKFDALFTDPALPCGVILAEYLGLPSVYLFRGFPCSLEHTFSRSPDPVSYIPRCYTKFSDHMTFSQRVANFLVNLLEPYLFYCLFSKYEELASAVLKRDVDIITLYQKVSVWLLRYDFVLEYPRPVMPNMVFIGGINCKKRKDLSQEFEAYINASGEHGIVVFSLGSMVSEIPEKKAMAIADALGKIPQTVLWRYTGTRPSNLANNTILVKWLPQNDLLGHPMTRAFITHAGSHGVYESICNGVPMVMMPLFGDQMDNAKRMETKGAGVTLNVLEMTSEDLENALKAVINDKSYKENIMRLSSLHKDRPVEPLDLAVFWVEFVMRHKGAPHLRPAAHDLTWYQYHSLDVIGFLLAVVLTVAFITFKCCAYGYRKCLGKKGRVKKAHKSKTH
The nature of data set [20]: Inhibition of acetaminophen glucuronidation by human UGT enzymes from liver microsomes. Also on record: species or system Microsome.

pKi: −log10 of the molar value. Several values for one entry are separate records, joined by “and”; a condition that tells them apart may be missing. Equal values may be shown once.

Turning to `O=C1Nc2ccc(Cl)cc2C(c2ccccc2)=NC1O` (stereo not given) [OXAZEPAM], the pKi is 3.24 in [1]; 3.73 in data set [2]; 3.70 and 3.57 in [3]; 3.92 in data set [4].
Take `O=C(O)Cc1ccccc1Nc1c(Cl)cccc1Cl` [DICLOFENAC]: the negative logarithm of the Ki (pKi) in data set [5] was 4.96; in data set [8] it was 5.10; in [9], 4.28; in data set [12] it was 4.55; in [15], 4.72. Besides, the Vmax was 166 pmol/min/mg protein in data set [6] and 142 pmol/min/mg protein in data set [13]. Also, the Km in data set [7] was 16 µM; in data set [10] it was 13 µM; in data set [11], 25 µM; in [14] it was 12 µM.
For the compound `CCCC(CCC)C(=O)O` [VALPROIC ACID], the inhibition at 5000 µM was 46% in data set [16] and 41% in data set [17]. Also, the pKi in data set [18] was 2.80.
For the compound `CCCN(CCC)S(=O)(=O)c1ccc(C(=O)O)cc1` [PROBENECID], the pKi is 2.61 in data set [5]; 2.80 in data set [1]; 3.66 in [9]; 3.64 in data set [12]; 2.84 in data set [19]; 2.96 in data set [20]. Moreover, the negative logarithm of the Ki (pKi) in data set [15] is 4.02.
